Consider eight molecules from US8946478B2, “Benzamide derivative with anticancer activity and preparation method and use thereof” (Zhejiang Hisun Pharmaceutical Co., Ltd., priority 2010, dated 2015).

For assay [1], the system named is 18 tumor cell strains. In words: In vitro efficacy screening, summary over the tumor cell strains. The conditions noted are these: in vitro screening; for inhibitory effects on tumor cell proliferation (in words): BSI-201 as positive drug. It counts as cell-based, human. Here is the method: (§1) Human colon cancer cell strains (Colo205 and HCT-116), human breast cancer cell strains (MCF-7 and MDA-MB435), human lung cancer cell strains (A549, 95D and NCI460), human ovarian cancer cell strains (OVCAR-5, OVCAR-8, HO8910 and SKOV-3), human leukemia (HL-60 and K562), human prostate cancer (DU145 and BXPC-3), human uterine cancer (Hela), human pancreatic cancer (PANC-1), human hepatoma (HepG 2) were all obtained from ATCC. Colo205, HL-60, K562 cells were cultured in RPMI 1640 containing 2 mM/L glutamine, 10% FBS, 1.0 mM sodium pyruvate. HCT-116, MCF-7, A549, 95D, HO8910, NCI460, OVCAR-5, OVCAR-8, DU145, BXPC-3, Hela, PANC-1, HepG2 cells were cultured in DMEM containing 2 mM/L glutamine, 10% FBS. MDA-MB435 cells were cultured in L-15 containing 2 mM/L glutamine, 10% FBS. SKOV-3 cells were cultured in McCoy's containing 2 mM/L glutamine, 10% FBS. Colo205, HL-60 and K562 cells were seeded in 96-well plates, 150 μL/well and 8000 cells/well, and the 96-well plates were pre-incubated in an incubator at 37° C. with 5% CO2, 100% relative humidity for 24 hours. HCT-116, MCF-7, NCI460, OVCAR-5, OVCAR-8, Hela, HepG 2 and MDA-MB435 cells were seeded in 96-well plates, 5000 cells/well; A549, 95D, HO8910, DU145, BXPC-3, PANC-1 and SKOV-3 cells were seeded in 96-well plates, 10000 cells/well, and the 96-well plates were pre-incubated in an incubator at 37° C. with 5% CO2, 100% relative humidity for 24 hours, to allow the cells to adhere.
(§2) 50 μL of pre-cooled 50% (mass/volume) TCA was added into the time zero control wells for each cell strain to fix the cells. To other wells, 50 μL of various concentrations of compounds were added, and maintained for 48 h, wherein each drug concentration was in triplicate, and there were blank control wells (cell culture medium without cells), drug-free control wells (with no drugs but the same volume of complete medium) and positive drug BSI-201 control wells, and the plates were incubated in an incubator at 37° C. with 5% CO2, full humidity (100% relative humidity) for 48 hours
(§3) 50 μL pre-cooled 50% (mass/volume) TCA was added onto the surface of the culture medium to fix the cells, which was then placed at 4° C. for 1 h. The supernatant was removed and each well was washed with deionized water for 5 times to remove TCA, serum proteins, etc. After dried in the air, about 100 μL enough amount of 0.4% SRB (formulated with 1% acetic acid) was added into each well, and was placed at room temperature for 20 to 30 min. Liquid in each well was discarded and each well was rapidly washed with 1% acetic acid for five times, to remove unbound dye until the unbound dye was completely rinsed clean. After dried in the air until the moisture was invisible, each well was added 200 μL Tris base to dissolve, shaken on a plate oscillator for 5 min or mixed by beating up and down with a pipette tip, and then measured on the multi-function instruction (M5 Detection System, MD Group Ltd.) with a detection wavelength of 515 nm, zero adjusted with 690 nm blank control.
(§4) The dose-response curve was plotted by XL-fit to determine the GI50 value.

Assay [2] has as its system human ovarian cancer cell strain SKOV-3. Description: In vitro SRB tumor cell growth inhibition (GI50). It counts as cell-based. The conditions noted are these: SK-OV-3, SKOV-3 cells, 48 h. Here is the method:
as §1, §2, §3, §4

Assay [3] relates to human lung cancer cell strain A549. In words: In vitro SRB tumor cell growth inhibition (GI50). The assay is classed as cell-based. The conditions noted are these: A549 cells, 48 h. On the procedure:
as §1, §2, §3, §4

Assay [4] deals with human colon cancer cell strain Colo205. Description: In vitro SRB tumor cell growth inhibition (GI50). The conditions noted are these: Colo 205 cells, 48 h. The assay is classed as cell-based. On the procedure: as §1, §2, §3, §4
For assay [5], the system named is human leukemia K562. Description: In vitro SRB tumor cell growth inhibition (GI50). It counts as cell-based. The conditions noted are these: K562 cells. On the procedure: as §1, §2, §3, §4
The test system of assay [6] is human breast cancer cell strain MCF-7. Description: In vitro SRB tumor cell growth inhibition (GI50). The assay is classed as cell-based. To be noted: MCF-7 cells. Here is the method: as §1, §2, §3, §4
The subject of assay [7] is human pancreatic cancer PANC-1. Description: In vitro SRB tumor cell growth inhibition (GI50). The assay is classed as cell-based. The conditions noted are these: PANC-1 cells. Here is the method: as §1, §2, §3, §4
Assay [8] has as its system human ovarian cancer cell strain OVCAR-8. In words: In vitro SRB tumor cell growth inhibition (GI50). The conditions noted are these: OVCAR-8 cells. It counts as cell-based. Here is the method:
as §1, §2, §3, §4

Assay [9] deals with human breast cancer cell strain MDA-MB435. In words: In vitro SRB tumor cell growth inhibition (GI50). The assay is classed as cell-based. To be noted: MDA-MB435 cells. Here is the method: as §1, §2, §3, §4
The subject of assay [10] is human colon cancer cell strain HCT-116. In words: In vitro SRB tumor cell growth inhibition (GI50). The assay is classed as cell-based. The conditions noted are these: HCT-116 cells. On the procedure:
as §1, §2, §3, §4

The subject of assay [11] is human prostate cancer BXPC-3. In words: In vitro SRB tumor cell growth inhibition (GI50). It counts as cell-based. To be noted: BXPC-3 cells, 48 h. On the procedure:
as §1, §2, §3, §4

The subject of assay [12] is human hepatoma HepG 2. In words: In vitro SRB tumor cell growth inhibition (GI50). The assay is classed as cell-based. The conditions noted are these: HepG2, HepG 2 cells, 48 h. Here is the method:
as §1, §2, §3, §4

Assay [13] has as its system human ovarian cancer cell strain HO8910. In words: In vitro SRB tumor cell growth inhibition (GI50). It counts as cell-based. The conditions noted are these: HO-8910, HO8910 cells, 48 h. Here is the method:
as §1, §2, §3, §4

Assay [14] relates to human leukemia HL-60. Description: In vitro SRB tumor cell growth inhibition (GI50). It counts as cell-based. The conditions noted are these: HL-60 cells. Here is the method:
as §1, §2, §3, §4

For assay [15], the system named is human uterine cancer Hela. Description: In vitro SRB tumor cell growth inhibition (GI50). The assay is classed as cell-based. The conditions noted are these: 48 h, Hela cells. Here is the method: as §1, §2, §3, §4
In assay [16] the test system is human lung cancer cell strain NCI-460. Description: In vitro SRB tumor cell growth inhibition (GI50). It counts as cell-based. To be noted: NCI-460 cells. On the procedure:
as §1, §2, §3, §4

Assay [17] deals with human prostate cancer DU145. In words: In vitro SRB tumor cell growth inhibition (GI50). To be noted: DU145 cells. The assay is classed as cell-based. On the procedure:
as §1, §2, §3, §4

Assay [18] concerns human lung cancer cell strain 95D. In words: In vitro SRB tumor cell growth inhibition (GI50). It counts as cell-based. To be noted: 48 h, 95D cells. Here is the method: as §1, §2, §3, §4

As usually defined, the GI50 is the concentration at which growth is held to half of that of the control. Low values mean greater sensitivity of the cells, high ones lower sensitivity of the cells. Regarding `CC#Cc1ccc(C(=O)NC)cc1[N+](=O)[O-]` [Compound I-26, N-methyl-4-(1-propynyl)-3-nitrobenzamide], in assay [1], the “inhibitory effects on tumor cell proliferation (in words)” value (“inhibitory effects” below) is given as “have inhibitory effects on tumor cell proliferation”. Also, the GI50 in assay [2] stood at 105 µM; in [3] it was 130 µM.

Regarding `C#Cc1ccc(C(=O)NC(=O)OC(C)C)cc1[N+](=O)[O-]` [Compound I-6, N-isopropoxycarbonyl-4-ethynyl-3-nitrobenzamide], the “efficacy in inhibition of tumor cell proliferation, graded in words against I-1” value (“efficacy in inhibition” below) in assay [1] was “good effects on inhibition of tumor cell proliferation”. The “inhibitory effects” value in assay [1] is given as “have inhibitory effects on tumor cell proliferation”. Further, the GI50 amounted to 9.09 µM in [4] and 20.2 µM in assay [5] (Homo sapiens, K562, 48 h).

Turning to `C#Cc1ccc(C(=O)NC(=O)OCC)cc1[N+](=O)[O-]` [Compound I-3, N-ethoxycarbonyl-4-ethynyl-3-nitrobenzamide], the “efficacy in inhibition” value in assay [1] is listed as “slightly lower than that of I-1”. Further, the “inhibitory effects” value in assay [1] is recorded as “have inhibitory effects on tumor cell proliferation”. The GI50 in assay [4] is 4.32 µM; in assay [6] (Homo sapiens, MCF7, 48 h) it was 6.81 µM; in assay [7] (Homo sapiens, PANC-1, 48 h), 2.48 µM; in assay [8] (Homo sapiens, OVCAR-8, 48 h), 16.3 µM; in [9] (Homo sapiens, MDA-MB-435, 48 h), 4.16 µM; in assay [10] (Homo sapiens, HCT-116, 48 h), 5.6 µM. The GI50 in assay [2] was found to be 15 µM; in [11] it was 7.5 µM; in assay [12], 12 µM; in assay [5] (Homo sapiens, K562, 48 h), 7.03 µM; in assay [3], 25 µM; in assay [13], 4.03 µM. The GI50 in assay [14] (Homo sapiens, HL-60, 48 h) was determined as 3.2 µM; in [15] (Homo sapiens, HeLa), 9.9 µM; in assay [16] (Homo sapiens, NCI-460, 48 h) it was 37.3 µM; in assay [17] (Homo sapiens, DU-145, 48 h) it was 3.79 µM; in [18] (Homo sapiens, 95-D) it was 4.38 µM.

On to `C#Cc1ccc(C(=O)NC(=O)OCC(C)C)cc1[N+](=O)[O-]` [Compound I-7, N-isobutoxycarbonyl-4-ethynyl-3-nitrobenzamide], for which, in assay [1], the “efficacy in inhibition” value is on record as “good effects on inhibition of tumor cell proliferation”. Besides, the “inhibitory effects” value in assay [1] is given as “have inhibitory effects on tumor cell proliferation”. Also, the GI50 amounted to 3.15 µM in assay [4]; 9.67 µM in assay [9] (Homo sapiens, MDA-MB-435, 48 h); 10.1 µM in [5] (Homo sapiens, K562, 48 h).

For `C#Cc1ccc(C(=O)N2CCNCC2)cc1[N+](=O)[O-].Cl` [Compound I-30, (4-ethynyl-3-nitrophenyl)(piperazin-1-yl)ketone hydrochloride], in assay [1], the “efficacy in inhibition” value is listed as “slightly lower than that of I-1”. In addition, in assay [1], the “inhibitory effects” value is given as “have inhibitory effects on tumor cell proliferation”. In addition, the concentration for 50% growth inhibition (GI50) amounted to 5.97 µM in assay [6] (Homo sapiens, MCF7, 48 h); 18.1 µM in assay [7] (Homo sapiens, PANC-1, 48 h); 10.3 µM in [8] (Homo sapiens, OVCAR-8, 48 h); 3.06 µM in [9] (Homo sapiens, MDA-MB-435, 48 h); 10.3 µM in assay [10] (Homo sapiens, HCT-116, 48 h); 15.3 µM in assay [5] (Homo sapiens, K562, 48 h). The GI50 in assay [14] (Homo sapiens, HL-60, 48 h) was determined as 9.27 µM; in assay [15] (Homo sapiens, HeLa), 14 µM; in [16] (Homo sapiens, NCI-460, 48 h) it was 19.5 µM; in assay [17] (Homo sapiens, DU-145, 48 h), 5.84 µM; in assay [18] (Homo sapiens, 95-D), 10.9 µM.

Turning to `C#Cc1ccc(C(=O)N2CCN(C)CC2)cc1[N+](=O)[O-].Cl` [Compound I-29, (4-ethynyl-3-nitrophenyl)(4-methylpiperazin-1-yl)ketone hydrochloride], the “efficacy in inhibition” value in assay [1] was “slightly lower than that of I-1”. Moreover, in assay [1], the “inhibitory effects” value is listed as “have inhibitory effects on tumor cell proliferation”. Further, the GI50 in assay [6] (48 h, hydrochloride) worked out at 11.8 µM; in assay [8] (48 h, hydrochloride), 29.3 µM; in assay [9] (48 h, hydrochloride), 8.44 µM; in [10] (48 h, hydrochloride), 14.3 µM; in assay [16] (48 h, hydrochloride), 28.2 µM; in [18] (hydrochloride), 15.8 µM.

With `C#Cc1ccc(C(=O)N2CCNCC2)cc1[N+](=O)[O-]` [Compound I-23, (4-ethynyl-3-nitrophenyl)(piperazin-1-yl)ketone], the “efficacy in inhibition” value in assay [1] was “slightly lower than that of I-1”. The “inhibitory effects” value in assay [1] is given as “have inhibitory effects on tumor cell proliferation”. In addition, the GI50 in assay [6] (48 h) turned out to be 9.24 µM; in assay [7] (48 h), 23.8 µM; in assay [10] (48 h), 12.4 µM; in [2] it was 31.3 µM; in assay [5] (48 h) it was 16.2 µM; in [3], 56.8 µM. For the same molecule, the GI50 worked out at 12.3 µM in assay [14] (48 h); 11.2 µM in assay [15]; 25.6 µM in assay [16] (48 h); 3.44 µM in [17] (48 h); 10.9 µM in assay [18].

Take `C#Cc1ccc(C(=O)N(CCC)CCC)cc1[N+](=O)[O-]` [Compound I-15, N,N-dipropyl-4-ethynyl-3-nitrobenzamide]: in [1], the “efficacy in inhibition” value is reported as “slightly lower than that of I-1”. The “inhibitory effects” value in assay [1] is listed as “have inhibitory effects on tumor cell proliferation”. Besides, the GI50 in [6] (Homo sapiens, MCF7, 48 h) amounted to 9.92 µM; in assay [10] (Homo sapiens, HCT-116, 48 h) it was 12 µM; in [16] (Homo sapiens, NCI-460, 48 h), 17 µM; in [17] (Homo sapiens, DU-145, 48 h), 2.37 µM.
